Source: ChEMBL document CHEMBL1212922, “Crystal structure-based selective targeting of the pyridoxal 5'-phosphate dependent enzyme kynurenine aminotransferase II for cognitive enhancement” (J Med Chem, 2010)

Tests used:
[1] = target: T1, Kynurenine/alpha-aminoadipate aminotransferase, mitochondrial (Homo sapiens, UniProt Q8N5Z0); test: Inhibition of human recombinant MBP-KAT2 expressed in HEK293 cells assessed as conversion of L-kynurenine to kynurenic acid after 1 hr
[2] = target: Kynurenine/alpha-aminoadipate aminotransferase, mitochondrial (Rattus norvegicus, UniProt Q64602); test: Inhibition of rat brain KAT2
Kynurenine/alpha-aminoadipate aminotransferase, mitochondrial (Rattus norvegicus, UniProt Q64602), sequence (Q64602 whole entry): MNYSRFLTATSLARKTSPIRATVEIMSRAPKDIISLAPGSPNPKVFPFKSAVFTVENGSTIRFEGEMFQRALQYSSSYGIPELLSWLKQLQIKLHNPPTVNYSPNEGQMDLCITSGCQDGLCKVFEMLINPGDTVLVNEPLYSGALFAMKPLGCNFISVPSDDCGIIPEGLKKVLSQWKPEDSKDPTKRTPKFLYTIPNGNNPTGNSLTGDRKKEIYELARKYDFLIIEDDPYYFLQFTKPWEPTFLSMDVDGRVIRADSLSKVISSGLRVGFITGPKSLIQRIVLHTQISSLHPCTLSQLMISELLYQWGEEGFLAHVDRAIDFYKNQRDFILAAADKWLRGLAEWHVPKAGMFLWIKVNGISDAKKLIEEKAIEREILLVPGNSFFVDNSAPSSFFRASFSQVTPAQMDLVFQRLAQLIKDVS

[3] = target: T2, Kynurenine--oxoglutarate transaminase 1 (Homo sapiens, UniProt Q16773); test: Inhibition of human recombinant MBP-KAT1 expressed in Escherichia coli BL21 assessed as conversion of L-kynurenine to kynurenic acid after 1 hr
T2 sequence (Q16773 whole entry): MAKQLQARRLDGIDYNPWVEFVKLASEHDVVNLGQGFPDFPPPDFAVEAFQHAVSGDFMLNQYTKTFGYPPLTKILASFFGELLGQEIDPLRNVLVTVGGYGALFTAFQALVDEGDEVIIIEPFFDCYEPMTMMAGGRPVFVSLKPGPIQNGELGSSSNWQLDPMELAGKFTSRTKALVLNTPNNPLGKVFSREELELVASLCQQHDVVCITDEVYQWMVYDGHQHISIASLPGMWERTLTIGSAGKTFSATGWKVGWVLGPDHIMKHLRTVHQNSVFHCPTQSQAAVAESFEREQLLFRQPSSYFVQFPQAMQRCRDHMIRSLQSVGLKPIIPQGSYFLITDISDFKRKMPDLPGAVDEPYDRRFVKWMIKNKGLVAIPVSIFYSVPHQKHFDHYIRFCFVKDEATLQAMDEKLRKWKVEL

[4] = target: T2, Kynurenine--oxoglutarate transaminase 1; test: Inhibition of KAT1 in human prefrontal cortex homogenates; type: tissue-based
[5] = target: T3, Kynureninase (Homo sapiens) (UniProt Q16719); test: Inhibition of kynureninase in human prefrontal cortex homogenates at 100 uM; type: tissue-based
T3 sequence (whole entry): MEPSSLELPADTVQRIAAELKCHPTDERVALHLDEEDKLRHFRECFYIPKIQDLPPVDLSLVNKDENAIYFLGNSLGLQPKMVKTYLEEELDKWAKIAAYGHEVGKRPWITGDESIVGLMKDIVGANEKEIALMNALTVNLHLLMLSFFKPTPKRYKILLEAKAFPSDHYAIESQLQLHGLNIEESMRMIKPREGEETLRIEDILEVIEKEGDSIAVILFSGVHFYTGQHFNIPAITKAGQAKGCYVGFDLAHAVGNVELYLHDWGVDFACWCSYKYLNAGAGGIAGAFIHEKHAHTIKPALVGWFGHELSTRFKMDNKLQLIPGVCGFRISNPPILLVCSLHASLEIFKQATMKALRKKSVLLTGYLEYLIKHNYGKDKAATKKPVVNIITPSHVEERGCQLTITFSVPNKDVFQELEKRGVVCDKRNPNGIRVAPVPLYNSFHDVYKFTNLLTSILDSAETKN

[6] = target: T1, Kynurenine/alpha-aminoadipate aminotransferase, mitochondrial; test: Inhibition of KAT2 in human prefrontal cortex homogenates; type: tissue-based
[7] = target: Kynurenine 3-monooxygenase (Homo sapiens) (UniProt O15229); test: Inhibition of kynurenine 3-monooxygenase in human prefrontal cortex homogenates at 100 uM; type: tissue-based
Kynurenine 3-monooxygenase (Homo sapiens), sequence (O15229 whole entry, looked up): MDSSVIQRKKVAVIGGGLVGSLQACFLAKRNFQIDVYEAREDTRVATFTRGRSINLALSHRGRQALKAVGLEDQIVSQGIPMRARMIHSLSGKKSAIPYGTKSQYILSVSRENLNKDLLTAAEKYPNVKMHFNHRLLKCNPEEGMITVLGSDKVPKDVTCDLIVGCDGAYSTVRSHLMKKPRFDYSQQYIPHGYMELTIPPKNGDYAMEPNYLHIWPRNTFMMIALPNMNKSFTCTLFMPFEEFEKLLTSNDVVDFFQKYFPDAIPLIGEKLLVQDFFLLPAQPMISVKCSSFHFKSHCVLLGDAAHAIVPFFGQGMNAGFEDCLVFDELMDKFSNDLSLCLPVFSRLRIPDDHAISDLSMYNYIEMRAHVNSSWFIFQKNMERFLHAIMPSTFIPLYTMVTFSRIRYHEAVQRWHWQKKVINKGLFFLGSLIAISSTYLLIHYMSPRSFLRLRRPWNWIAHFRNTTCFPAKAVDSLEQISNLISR

T1 sequence (Q8N5Z0 whole entry): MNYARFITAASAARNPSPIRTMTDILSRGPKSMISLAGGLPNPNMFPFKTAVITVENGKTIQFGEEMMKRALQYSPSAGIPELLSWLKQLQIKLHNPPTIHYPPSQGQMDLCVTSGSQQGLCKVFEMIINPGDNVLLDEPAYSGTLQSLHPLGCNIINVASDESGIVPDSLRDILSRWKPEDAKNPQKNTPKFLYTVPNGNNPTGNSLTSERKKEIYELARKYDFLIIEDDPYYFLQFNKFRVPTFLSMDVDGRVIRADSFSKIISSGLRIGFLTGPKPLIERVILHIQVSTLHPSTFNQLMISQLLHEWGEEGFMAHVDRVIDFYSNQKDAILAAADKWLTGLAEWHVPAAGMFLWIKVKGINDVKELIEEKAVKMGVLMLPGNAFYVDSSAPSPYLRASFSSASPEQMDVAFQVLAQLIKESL

Compound	IC50 [1] [nM]	IC50 [2] [nM]	IC50 [3] [nM]	IC50 [4] [nM]	inhibition [5] [%]	IC50 [6] [nM]	inhibition [7] [%]
C[C@H]1COc2c(N3CCN(N)CC3)c(F)cc3c(=O)c(C(=O)O)cn1c23	910	1000	> 30000	> 30000	5.1	1000	8.3
C[C@@H]1COc2c(N3CCN(N)CC3)c(F)cc3c(=O)c(C(=O)O)cn1c23	1500						
